In PubChem BioAssay AID1963862 (Molecular Pharmacology Branch, DTP, NCI, 2024):

Test system: KRAS patient-derived spheroids with HUVEC/MSC, viability
Assay: Anticancer human tumor 941728-121-R-J1-PDC patient-derived lung adenocarcinoma cell line growth inhibition [KRAS2]
Conditions: for IC50: curve of first compound; for viability, T/C: stronger effect = lower value
Procedure, shortened: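 KRAS-mutant tumor cells were grown as spheroids with HUVEC endothelial cells and human MSCs as stroma. Targeted agents were tested alone and with KRAS pathway inhibitors. Doses started at or near clinical Cmax, or 10 microM, descending half-log.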

[1] = second compound 0.1 µM, first compound 0.01 µM
[2] = second compound 0.1 µM, first compound 0.0316 µM
[3] = second compound 0.1 µM, first compound 0.1 µM
[4] = second compound 0.1 µM, first compound 0.316 µM
[5] = second compound 0.1 µM, first compound 1 µM
[6] = second compound 0.1 µM, first compound 3.16 µM
[7] = second compound 0.316 µM, first compound 0.01 µM
[8] = second compound 0.316 µM, first compound 0.0316 µM
[9] = second compound 0.316 µM, first compound 0.1 µM
[10] = second compound 0.316 µM, first compound 0.316 µM
[11] = second compound 0.316 µM, first compound 1 µM
[12] = second compound 0.316 µM, first compound 3.16 µM
[13] = second compound 1 µM, first compound 0.01 µM
[14] = second compound 1 µM, first compound 0.0316 µM
[15] = second compound 1 µM, first compound 0.1 µM
[16] = second compound 1 µM, first compound 0.316 µM
[17] = second compound 1 µM, first compound 1 µM
[18] = second compound 1 µM, first compound 3.16 µM
[19] = second compound 3.16 µM, first compound 0.01 µM
[20] = second compound 3.16 µM, first compound 0.0316 µM
[21] = second compound 3.16 µM, first compound 0.1 µM
[22] = second compound 3.16 µM, first compound 0.316 µM
[23] = second compound 3.16 µM, first compound 1 µM
[24] = second compound 3.16 µM, first compound 3.16 µM
[25] = second compound 10 µM, first compound 0.01 µM
[26] = second compound 10 µM, first compound 0.0316 µM
[27] = second compound 10 µM, first compound 0.1 µM
[28] = second compound 10 µM, first compound 0.316 µM
[29] = second compound 10 µM, first compound 1 µM
[30] = second compound 10 µM, first compound 3.16 µM
[31] = second compound 0.1 µM, first compound 10 µM
[32] = second compound 0.316 µM, first compound 10 µM
[33] = second compound 1 µM, first compound 10 µM
[34] = second compound 3.16 µM, first compound 10 µM
[35] = second compound 10 µM, first compound 10 µM
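Also: spheroids exposed to agents for seven days before readout.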

Structure (SMILES): CC1COCCN1c1cc(-c2ccnn2C)c2ccnc(-c3ccn[nH]3)c2n1 (stereo not given) + CNCc1ccccc1-c1csc(C(C)Nc2nc(C)nc3cc(OC)c(OC)cc23)c1
- IC50 (second compound 0.1 µM): 23.7 nM
- IC50 (second compound 0.316 µM): < 10 nM
- IC50 (second compound 1 µM): < 10 nM
- IC50 (second compound 3.16 µM): < 10 nM
- IC50 (second compound 10 µM): < 10 nM
- viability, T/C [1]: 63.1%
- viability, T/C [2]: 43.3%
- viability, T/C [3]: 39.4%
- viability, T/C [4]: 31.7%
- viability, T/C [5]: 28.2%
- viability, T/C [6]: 26.8%
- viability, T/C [7]: 41.5%
- viability, T/C [8]: 37.1%
- viability, T/C [9]: 29%
- viability, T/C [10]: 22.8%
- viability, T/C [11]: 22.9%
- viability, T/C [12]: 22.6%
- viability, T/C [13]: 24.9%
- viability, T/C [14]: 29.4%
- viability, T/C [15]: 18.8%
- viability, T/C [16]: 19%
- viability, T/C [17]: 14%
- viability, T/C [18]: 11.4%
- viability, T/C [19]: 1.36%
- viability, T/C [20]: 1.18%
- viability, T/C [21]: 1.37%
- viability, T/C [22]: 0.47%
- viability, T/C [23]: 0.45%
- viability, T/C [24]: 0.62%
- viability, T/C [25]: 0.73%
- viability, T/C [26]: 0.11%
- viability, T/C [27]: 0.25%
- viability, T/C [28]: 0.12%
- viability, T/C [29]: 0.14%
- viability, T/C [30]: 0.17%

Structure (SMILES): CC1OCC2(CCN(c3cnc(Sc4ccnc(N)c4Cl)c(N)n3)CC2)C1N (stereo not given) + CNCc1ccccc1-c1csc(C(C)Nc2nc(C)nc3cc(OC)c(OC)cc23)c1
- IC50 (second compound 0.1 µM): < 31.6 nM
- IC50 (second compound 0.316 µM): < 31.6 nM
- IC50 (second compound 1 µM): < 31.6 nM
- IC50 (second compound 3.16 µM): < 31.6 nM
- IC50 (second compound 10 µM): < 31.6 nM
- viability, T/C [2]: 49.5%
- viability, T/C [3]: 38.1%
- viability, T/C [4]: 38.1%
- viability, T/C [5]: 32.5%
- viability, T/C [6]: 35.3%
- viability, T/C [31]: 34%
- viability, T/C [8]: 41%
- viability, T/C [9]: 34.7%
- viability, T/C [10]: 31.2%
- viability, T/C [11]: 28.9%
- viability, T/C [12]: 30.2%
- viability, T/C [32]: 30.1%
- viability, T/C [14]: 37.6%
- viability, T/C [15]: 36.6%
- viability, T/C [16]: 28.2%
- viability, T/C [17]: 26.2%
- viability, T/C [18]: 20.9%
- viability, T/C [33]: 17.8%
- viability, T/C [20]: 5.49%
- viability, T/C [21]: 2.19%
- viability, T/C [22]: 2.26%
- viability, T/C [23]: 2.13%
- viability, T/C [24]: 0.72%
- viability, T/C [34]: 0.85%
- viability, T/C [26]: 0.11%
- viability, T/C [27]: 0.12%
- viability, T/C [28]: 0.4%
- viability, T/C [29]: 0.22%
- viability, T/C [30]: 1.25%
- viability, T/C [35]: 0.16%

Structure (SMILES): CCN1CCN(Cc2ccc(Nc3ncc(F)c(-c4cc(F)c5nc(C)n(C(C)C)c5c4)n3)nc2)CC1 + CNCc1ccccc1-c1csc(C(C)Nc2nc(C)nc3cc(OC)c(OC)cc23)c1
- IC50 (second compound 0.1 µM): 6.14 nM
- IC50 (second compound 0.316 µM): < 3.16 nM
- IC50 (second compound 1 µM): < 3.16 nM
- IC50 (second compound 3.16 µM): < 3.16 nM
- IC50 (second compound 10 µM): < 3.16 nM
- viability, T/C (second compound 0.1 µM, first compound 0.00316 µM): 58.2%
- viability, T/C [1]: 43.9%
- viability, T/C [2]: 40%
- viability, T/C [3]: 43.7%
- viability, T/C [4]: 38.4%
- viability, T/C [5]: 53%
- viability, T/C (second compound 0.316 µM, first compound 0.00316 µM): 44%
- viability, T/C [7]: 38.5%
- viability, T/C [8]: 31%
- viability, T/C [9]: 28.9%
- viability, T/C [10]: 30.6%
- viability, T/C [11]: 46.8%
- viability, T/C (second compound 1 µM, first compound 0.00316 µM): 22.1%
- viability, T/C [13]: 25.4%
- viability, T/C [14]: 18.7%
- viability, T/C [15]: 17.1%
- viability, T/C [16]: 16.9%
- viability, T/C [17]: 5.4%
- viability, T/C (second compound 3.16 µM, first compound 0.00316 µM): 1.35%
- viability, T/C [19]: 1.57%
- viability, T/C [20]: 1.42%
- viability, T/C [21]: 2.24%
- viability, T/C [22]: 0.67%
- viability, T/C [23]: 2.46%
- viability, T/C (second compound 10 µM, first compound 0.00316 µM): 0.72%
- viability, T/C [25]: 0.55%
- viability, T/C [26]: 0.84%
- viability, T/C [27]: 0.24%
- viability, T/C [28]: 0.74%
- viability, T/C [29]: 0.15%

Structure (SMILES): CCNC(=O)CC1N=C(c2ccc(Cl)cc2)c2cc(OC)ccc2-n2c(C)nnc21 (stereo not given) + CNCc1ccccc1-c1csc(C(C)Nc2nc(C)nc3cc(OC)c(OC)cc23)c1
- IC50 (second compound 0.1 µM): 64.4 nM
- IC50 (second compound 0.316 µM): < 31.6 nM
- IC50 (second compound 1 µM): < 31.6 nM
- IC50 (second compound 3.16 µM): < 31.6 nM
- IC50 (second compound 10 µM): < 31.6 nM
- viability, T/C [2]: 53.8%
- viability, T/C [3]: 48.9%
- viability, T/C [4]: 40.2%
- viability, T/C [5]: 35.5%
- viability, T/C [6]: 34.1%
- viability, T/C [31]: 28.6%
- viability, T/C [8]: 38.7%
- viability, T/C [9]: 37.1%
- viability, T/C [10]: 27.8%
- viability, T/C [11]: 25.8%
- viability, T/C [12]: 20.6%
- viability, T/C [32]: 19.8%
- viability, T/C [14]: 30%
- viability, T/C [15]: 27.2%
- viability, T/C [16]: 20.7%
- viability, T/C [17]: 17.4%
- viability, T/C [18]: 12.9%
- viability, T/C [33]: 11%
- viability, T/C [20]: 1.35%
- viability, T/C [21]: 2.8%
- viability, T/C [22]: 0.83%
- viability, T/C [23]: 1.53%
- viability, T/C [24]: 1.46%
- viability, T/C [34]: 1.72%
- viability, T/C [26]: 0.51%
- viability, T/C [27]: 0.89%
- viability, T/C [28]: 0.25%
- viability, T/C [29]: 0.86%
- viability, T/C [30]: 0.86%
- viability, T/C [35]: 0.53%

Structure (SMILES): Cn1nccc1Nc1nccc(-c2cc3c(s2)C(C)(C)N(CCN2CCOCC2)C3=O)n1 + CNCc1ccccc1-c1csc(C(C)Nc2nc(C)nc3cc(OC)c(OC)cc23)c1
- IC50 (second compound 0.1 µM): 81.2 nM
- IC50 (second compound 0.316 µM): < 31.6 nM
- IC50 (second compound 1 µM): < 31.6 nM
- IC50 (second compound 3.16 µM): < 31.6 nM
- IC50 (second compound 10 µM): < 31.6 nM
- viability, T/C [2]: 70.3%
- viability, T/C [3]: 46.4%
- viability, T/C [4]: 37.4%
- viability, T/C [5]: 37.9%
- viability, T/C [6]: 36.8%
- viability, T/C [31]: 40.7%
- viability, T/C [8]: 40.3%
- viability, T/C [9]: 37.9%
- viability, T/C [10]: 34.8%
- viability, T/C [11]: 32.3%
- viability, T/C [12]: 31%
- viability, T/C [32]: 29.6%
- viability, T/C [14]: 35.6%
- viability, T/C [15]: 30.3%
- viability, T/C [16]: 31.6%
- viability, T/C [17]: 21.3%
- viability, T/C [18]: 11.4%
- viability, T/C [33]: 13.1%
- viability, T/C [20]: 1.11%
- viability, T/C [21]: 2.35%
- viability, T/C [22]: 1.61%
- viability, T/C [23]: 0.99%
- viability, T/C [24]: 1.35%
- viability, T/C [34]: 0.25%
- viability, T/C [26]: 0.56%
- viability, T/C [27]: 0.88%
- viability, T/C [28]: 0.44%
- viability, T/C [29]: 0.77%
- viability, T/C [30]: 0.11%
- viability, T/C [35]: 0.35%

Structure (SMILES): CC(=O)OC12COC1CC(O)C1(C)C(=O)C(O)C3=C(C)C(OC(=O)C(O)C(NC(=O)OC(C)(C)C)c4ccccc4)CC(O)(C(OC(=O)c4ccccc4)C21)C3(C)C (stereo not given) + COc1cc2nc(C)nc(NC(C)c3cc(N)cc(C(F)(F)F)c3)c2cc1OC1CCOC1
- IC50 (second compound 0.1 µM): < 10 nM
- IC50 (second compound 0.316 µM): < 10 nM
- IC50 (second compound 1 µM): < 10 nM
- IC50 (second compound 3.16 µM): < 10 nM
- IC50 (second compound 10 µM): < 10 nM
- viability, T/C [1]: 37.4%
- viability, T/C [2]: 41.1%
- viability, T/C [3]: 41.4%
- viability, T/C [4]: 44.9%
- viability, T/C [5]: 41.9%
- viability, T/C [6]: 42.6%
- viability, T/C [7]: 38.2%
- viability, T/C [8]: 39.5%
- viability, T/C [9]: 36%
- viability, T/C [10]: 34.5%
- viability, T/C [11]: 36.9%
- viability, T/C [12]: 35.5%
- viability, T/C [13]: 35.8%
- viability, T/C [14]: 47.8%
- viability, T/C [15]: 49.6%
- viability, T/C [16]: 47.3%
- viability, T/C [17]: 48%
- viability, T/C [18]: 36.1%
- viability, T/C [19]: 33.5%
- viability, T/C [20]: 31.4%
- viability, T/C [21]: 32%
- viability, T/C [22]: 31.7%
- viability, T/C [23]: 32.7%
- viability, T/C [24]: 33.3%
- viability, T/C [25]: 31.2%
- viability, T/C [26]: 29.1%
- viability, T/C [27]: 30%
- viability, T/C [28]: 32.7%
- viability, T/C [29]: 36.2%
- viability, T/C [30]: 32.2%
